Measurements: patent publication US8609680B2, “2,3-dihydro-1H-inden-1-yl-2,7-diazaspiro[3.5] nonane derivatives” (Pfizer Inc., priority 2010, dated 2013)

Molecular target: T1, human GHSR1a (Homo sapiens, UniProt Q92847)
T1 construct: expressed in transfected cells; host or cells: HEK293 Tetracycline-Inducible cell line, used as membranes
Assay: Human Ghrelin SPA Binding Assay
Details: not given
From the text: The SPA format was utilized for high throughput screening of test compounds and filter binding served for more comprehensive binding characterization.
Human Ghrelin SPA Binding Assay

T1 sequence (Q92847 whole entry): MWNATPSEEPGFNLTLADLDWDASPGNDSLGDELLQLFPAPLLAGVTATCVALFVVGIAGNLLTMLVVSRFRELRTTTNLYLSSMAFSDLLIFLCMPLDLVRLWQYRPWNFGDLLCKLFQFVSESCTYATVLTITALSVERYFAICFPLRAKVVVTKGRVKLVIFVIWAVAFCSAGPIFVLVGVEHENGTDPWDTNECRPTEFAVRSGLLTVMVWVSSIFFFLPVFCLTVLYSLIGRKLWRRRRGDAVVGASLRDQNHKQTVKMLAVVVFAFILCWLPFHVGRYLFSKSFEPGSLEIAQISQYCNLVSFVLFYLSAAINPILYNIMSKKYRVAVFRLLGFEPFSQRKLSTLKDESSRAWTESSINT

Structure (SMILES)	IC50	Ki
COc1ccc(CC(=O)N2CCC3(CC2)CN(C2CCc4cc(-c5ncc(C)cn5)ccc42)C3)cc1 (racemic) [Example 1E]	34.1 nM	–
COc1ccc(CC(=O)N2CCC3(CC2)CN(C2CCc4cc(-c5nccs5)ccc42)C3)nc1 (racemic) [Example 1F]	–	22.8 nM
COc1ccc(CC(=O)N2CCC3(CC2)CN(C2CCc4cc(Oc5ccccc5)ccc42)C3)nc1 (racemic) [Example 1I]	36.6 nM	29.5 nM
COc1ccc(CC(=O)N2CCC3(CC2)CN(C2CCc4cc(-c5ccnc(C)c5)ccc42)C3)nc1 (racemic) [Example 2B]	6.75 nM	–
COc1ccc(CC(=O)N2CCC3(CC2)CN(C2CCc4cc(-c5ccc(C)cn5)ccc42)C3)nc1 (racemic) [Example 2D]	21.4 nM	–
COc1ccc(CC(=O)N2CCC3(CC2)CN(C2CCc4cc(-c5ncc(OC)cn5)ccc42)C3)nc1 (racemic) [Example 2E]	35.2 nM	63.6 nM
COc1ccc(CC(=O)N2CCC3(CC2)CN(C2CCc4cc(-c5cc(C)ccn5)ccc42)C3)nc1 (racemic) [Example 2G]	6.22 nM	–
O=C(Cc1ccc(C2CC2)cc1)N1CCC2(CC1)CN(C1CCc3cc(-c4ncccn4)ccc31)C2 (racemic) [Example 5A, 7-[(4-Cyclopropylphenyl)acetyl]-2-(5-pyrimidin-2-yl-2,3-dihydro-1H-inden-1-yl)-2,7-diazaspiro[3.5]nonane]	7.02 nM	6.15 nM
O=C(Cc1cc2ccccn2n1)N1CCC2(CC1)CN(C1CCc3cc(-c4ncccn4)ccc31)C2 (racemic) [Example 5H]	5.9 nM	–
O=C(Cc1cc2n(n1)CCCC2)N1CCC2(CC1)CN(C1CCc3cc(-c4ncccn4)ccc31)C2 (racemic) [Example 5I]	8.57 nM	9.26 nM
Cc1cn2cc(CC(=O)N3CCC4(CC3)CN(C3CCc5cc(-c6ncccn6)ccc53)C4)nc2s1 (stereo not drawn) [Example 1B]	–	4.59 nM
O=C(Cc1n[nH]c2ccccc12)N1CCC2(CC1)CN(C1CCc3cc(-c4ncccn4)ccc31)C2 (stereo not drawn) [Example 1C]	16.4 nM	14.2 nM
COc1ccc(CC(=O)N2CCC3(CC2)CN(C2CCc4cc(-c5ccnc(C)n5)ccc42)C3)cc1 (stereo not drawn) [Example 1D]	19.4 nM	–
COc1ccc(CC(=O)N2CCC3(CC2)CN(C2CCc4cc(-c5nccs5)ccc42)C3)nc1 (stereo not drawn) [Example 1F-1]	–	3.98 nM
COc1ccc(CC(=O)N2CCC3(CC2)CN(C2CCc4cc(-c5ncc(C)s5)ccc42)C3)nc1 (stereo not drawn) [Example 1G]	7.56 nM	8.67 nM
Cc1nn2cc(CC(=O)N3CCC4(CC3)CN(C3CCc5cc(-n6nccn6)ccc53)C4)nc2s1 (stereo not drawn) [Example 1H]	11.1 nM	10.4 nM
COc1ccc(CC(=O)N2CCC3(CC2)CN(C2CCc4cc(-c5nccc(C)n5)ccc42)C3)cc1 (stereo not drawn) [Example 1J]	5.25 nM	5.12 nM
Cc1ccnc(-c2ccc3c(c2)CCC3N2CC3(CCN(C(=O)Cc4cn5cc(C)sc5n4)CC3)C2)n1 (stereo not drawn) [Example 1K]	25.9 nM	–
CCc1cc(-c2ccc3c(c2)CC[C@H]3N2CC3(CCN(C(=O)Cc4ccc(OC)cc4C#N)CC3)C2)ncn1 [Example 3AB]	32.9 nM	28.8 nM
COc1ccc(CC(=O)N2CCC3(CC2)CN([C@@H]2CCc4cc(-c5cc(C#N)ncn5)ccc42)C3)nc1 [Example 3AC]	40.5 nM	33.8 nM
COc1ccc(CC(=O)N2CCC3(CC2)CN([C@@H]2CCc4cc(-c5ccncn5)ccc42)C3)nc1 [Example 3AE]	73.2 nM	68.9 nM
COc1ccc(CC(=O)N2CCC3(CC2)CN([C@@H]2CCc4cc(-c5ncco5)ccc42)C3)nc1 [Example 3AG]	40.1 nM	33.1 nM
O=C(Cc1ccc(C(F)(F)F)cc1)N1CCC2(CC1)CN([C@@H]1CCc3cc(-c4ncccn4)ccc31)C2 [Example 3AH]	90.2 nM	72.8 nM
COc1ccc(CC(=O)N2CCC3(CC2)CN([C@@H]2CCc4ccccc42)C3)cc1 [Example 3AJ]	293 nM	261 nM
CCn1ccc(CC(=O)N2CCC3(CC2)CN([C@@H]2CCc4cc(-c5ncccn5)ccc42)C3)n1 [Example 3AS]	143 nM	122 nM
O=C(Cc1cn(-c2ccccc2)cn1)N1CCC2(CC1)CN([C@@H]1CCc3cc(-c4ncccn4)ccc31)C2 [Example 3AV]	229 nM	198 nM
O=C(Cc1ccc(C(F)F)cn1)N1CCC2(CC1)CN([C@@H]1CCc3cc(-c4ncccn4)ccc31)C2 [Example 3AW]	949 nM	785 nM

Structure (SMILES)	IC50	Ki
Cc1cc(CC(=O)N2CCC3(CC2)CN([C@@H]2CCc4cc(-c5ncccn5)ccc42)C3)[nH]n1 [Example 3AX]	801 nM	691 nM
Cc1cc(-c2ccc3c(c2)CC[C@H]3N2CC3(CCN(C(=O)Cc4cn5nccnc5n4)CC3)C2)ncn1 [Example 3AY]	495 nM	440 nM
N#Cc1cc(-c2ccc3c(c2)CC[C@H]3N2CC3(CCN(C(=O)Cc4ccc(C5CC5)cn4)CC3)C2)ncn1 [Example 3AZ]	17.4 nM	15.4 nM
Cc1ccc(CC(=O)N2CCC3(CC2)CN([C@@H]2CCc4cc(-c5ccn(C)n5)ccc42)C3)nc1 [Example 3J]	52.9 nM	46.5 nM
COc1ccc(CC(=O)N2CCC3(CC2)CN([C@@H]2CCc4cc(-c5ccnc(C)n5)ccc42)C3)nc1 [Example 3K]	99.5 nM	87.1 nM
Cc1nn2cc(CC(=O)N3CCC4(CC3)CN([C@@H]3CCc5cc(-c6ncccn6)ccc53)C4)nc2s1 [Example 3O]	30.2 nM	28.1 nM
COc1ccc(NC(C)=O)c(CC(=O)N2CCC3(CC2)CN([C@@H]2CCc4cc(-c5ncccn5)ccc42)C3)c1 [Example 3P]	36.3 nM	31.7 nM
O=C(Cc1cn2ccccc2n1)N1CCC2(CC1)CN([C@@H]1CCc3cc(-c4ncccn4)ccc31)C2 [Example 3Q]	26.6 nM	23 nM
O=C(Cc1ccc2c(n1)OCCO2)N1CCC2(CC1)CN([C@@H]1CCc3cc(-c4ncccn4)ccc31)C2 [Example 3R]	25.5 nM	22.2 nM
Cc1ccc(CC(=O)N2CCC3(CC2)CN([C@@H]2CCc4cc(-c5nccc(C)n5)ccc42)C3)nc1 [Example 3T]	82.4 nM	73 nM
COc1ccc(CC(=O)N2CCC3(CC2)CN([C@@H]2CCc4cc(-c5cc(OC)ncn5)ccc42)C3)nc1 [Example 3V]	20.7 nM	17.4 nM
Cc1ccnc(-c2ccc3c(c2)CC[C@H]3N2CC3(CCN(C(=O)Cc4cn5nc(C)sc5n4)CC3)C2)n1 [Example 3Y]	30.7 nM	25.9 nM
Cc1ccn2cc(CC(=O)N3CCC4(CC3)CN([C@@H]3CCc5cc(-c6ccc(C(N)=O)cc6)ccc53)C4)nc2c1 [Example 4A, 4-[(1R)-1-{7-[(7-methylimidazo[1,2-a]pyridin-2-yl)acetyl]-2,7-diazaspiro[3.5]non-2-yl}-2,3-dihydro-1H-inden-5-yl]benzamide]	9.29 nM	8.02 nM
COc1ccc(CC(=O)N2CCC3(CC2)CN([C@@H]2CCc4cc(-c5ccc(C#N)nc5)ccc42)C3)nc1 [Example 4B, 5-[(1R)-1-{7-[(5-methoxypyridin-2-yl)acetyl]-2,7-diazaspiro[3.5]non-2-yl}-2,3-dihydro-1H-inden-5-yl]pyridine-2-carbonitrile]	70.5 nM	60.7 nM
CCc1ccc(CC(=O)N2CCC3(CC2)CN([C@@H]2CCc4cc(-c5ccc(C(N)=O)cc5)ccc42)C3)nc1 [Example 4C]	49.3 nM	43.3 nM
COc1ccc(CC(=O)N2CCC3(CC2)CN([C@@H]2CCc4cc(-c5ccc(C(N)=O)cc5)ccc42)C3)nc1 [Example 4D]	20.1 nM	17.5 nM
NC(=O)c1ccc(-c2ccc3c(c2)CC[C@H]3N2CC3(CCN(C(=O)Cc4cn5ccccc5n4)CC3)C2)cc1 [Example 4E]	42.6 nM	36.8 nM
O=C(Cc1ccc(C2CC2)cc1)N1CCC2(CC1)CN([C@@H]1CCc3cc(-c4ncccn4)ccc31)C2 [Example 5A-1, (R)-7-[(4-cyclopropylphenyl)acetyl]-2-(5-pyrimidin-2-yl-2,3-dihydro-1H-inden-1-yl)-2,7-diazaspiro[3.5]nonane]	4.5 nM	3.77 nM
CCc1ccc(CC(=O)N2CCC3(CC2)CN([C@@H]2CCc4cc(-n5nccn5)ccc42)C3)nc1 [Example 5D]	18.6 nM	–
Cc1ccc(CC(=O)N2CCC3(CC2)CN([C@@H]2CCc4cc(-c5ncccn5)ccc42)C3)cc1 [Example 5E]	18.6 nM	15.6 nM
CCc1ccc(CC(=O)N2CCC3(CC2)CN([C@@H]2CCc4cc(-c5ncccn5)ccc42)C3)cc1 [Example 5F]	12.8 nM	10.4 nM
Cc1ccc(CC(=O)N2CCC3(CC2)CN([C@@H]2CCc4cc(-n5nccn5)ccc42)C3)nc1 [Example 6A, 7-[(5-methylpyridin-2-yl)acetyl]-2-[5-(2H-1,2,3-triazol-2-yl)-2,3-dihydro-1H-inden-1-yl]-2,7-diazaspiro[3.5]nonane]	–	54.8 nM
CCOc1ccc(CC(=O)N2CCC3(CC2)CN([C@@H]2CCc4cc(-n5nccn5)ccc42)C3)nc1 [Example 6G]	43.2 nM	34.4 nM
COc1ccc(CC(=O)N2CCC3(CC2)CN([C@@H]2CCc4cc(-n5cncn5)ccc42)C3)nc1 [Example 6I]	483 nM	417 nM
COc1ccc(CC(=O)N2CCC3(CC2)CN([C@@H]2CCc4cc(-c5nnc(C)s5)ccc42)C3)nc1 [Example 6J]	327 nM	264 nM
Cc1ccc(CC(=O)N2CCC3(CC2)CN([C@@H]2CCc4cc(-c5ncccn5)ccc42)C3)c(C(N)=O)c1 [Example 7A]	42.2 nM	37.5 nM
COc1ccc(CC(=O)N2CCC3(CC2)CN([C@@H]2CCc4cc(-c5ncccn5)ccc42)C3)c(C(N)=O)c1 [Example 7B]	25.5 nM	22.2 nM

Same assay, conditions: SPA format, [125I] ghrelin displacement, human GHSR1a membranes from HEK293 Tetracycline-Inducible cell line

Structure (SMILES)	IC50
Cc1cn2cc(CC(=O)N3CCC4(CC3)CN(C3CCc5cc(-c6ncccn6)ccc53)C4)nc2s1 (stereo not drawn) [Example 1B]	3.79 nM
COc1ccc(CC(=O)N2CCC3(CC2)CN(C2CCc4cc(-c5nccs5)ccc42)C3)nc1 (stereo not drawn) [Example 1F-1]	5.46 nM

Same assay, conditions: SPA format, [125I] ghrelin displacement, human GHSR1a membranes; Ki=IC50/(1+[ligand]/Kd)

Structure (SMILES)	Ki
CCc1ccc(CC(=O)N2CCC3(CC2)CN([C@@H]2CCc4cc(-n5nccn5)ccc42)C3)nc1 [Example 5D]	16.1 nM
